Measurements reported in patent US20240158348A1, “HERBICIDAL CYCLIC AMIDES N-SUBSTITUTED WITH A HALOALKYLSULFONYLANILIDE GROUP” (FMC Corporation, priority 2021, published 2024).

Columns and labels:
Type in all cases: in vivo
[1] = test system: ragweed (common ragweed, Ambrosia artemisiifolia); experiment: Test C preemergence, ragweed; settings: 0 is no effect, 100 is complete control
Summary of the method: (§1)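 Visual injury rating, 0 (no effect) to 100 (complete control), versus untreated controls after 10 or 12 days in the greenhouse. Compounds were formulated in non-phytotoxic solvent plus surfactant and applied either as a directed soil spray at sowing or onto emerged one- to two-leaf plants.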

soybean (Glycine max) [2] = experiment: Test C preemergence, soybean; settings: 0 is no effect, 100 is complete control
Summary of the method: as §1

[3] = test system: wheat (Triticum aestivum); experiment: Test C preemergence, wheat; settings: 0 is no effect, 100 is complete control
corn (Zea mays) = experiment: Test C postemergence, corn; settings: for Corn plant response rating: 31 g ai/ha Postemergence, visual injury, 0 to 100 scale (0 no effect, 100 complete control); for Plant response rating (0 to 100 scale), Corn: 125 g ai/ha Postemergence, 0 is no effect, 100 is complete control
[4] = test system: ryegrass, Italian (Italian ryegrass, Lolium multiflorum); experiment: Test C postemergence, Italian ryegrass; settings: for Ryegrass, Italian plant response rating: visual injury, 0 to 100 scale (0 no effect, 100 complete control); for Plant response rating (0 to 100 scale), Ryegrass, Italian: 0 is no effect, 100 is complete control
Summary of the method: as §1

[5] = test system: blackgrass (Alopecurus myosuroides); experiment: Test C preemergence, blackgrass; settings: 0 is no effect, 100 is complete control
Summary of the method: as §1

soybean (Glycine max) [6] = experiment: Test C postemergence, soybean; settings: for Soybean plant response rating: visual injury, 0 to 100 scale (0 no effect, 100 complete control); for Plant response rating (0 to 100 scale), Soybean: 0 is no effect, 100 is complete control
[7] = test system: foxtail, giant (giant foxtail, Setaria faberi); experiment: Test C preemergence, giant foxtail; settings: 0 is no effect, 100 is complete control
Summary of the method: as §1

SMILES | Plant response rating (0 to 100 scale), Ragweed ([1]; 31 g ai/ha Preemergence) | Plant response rating (0 to 100 scale), Ragweed ([1]; 125 g ai/ha Preemergence) | Plant response rating (0 to 100 scale), Soybean (soybean (Glycine max) [2]; 31 g ai/ha Preemergence) | Plant response rating (0 to 100 scale), Soybean (soybean (Glycine max) [2]; 125 g ai/ha Preemergence) | Plant response rating (0 to 100 scale), Wheat ([3]; 31 g ai/ha Preemergence) | Plant response rating (0 to 100 scale), Wheat ([3]; 125 g ai/ha Preemergence) | Corn plant response rating (corn (Zea mays)) | Plant response rating (0 to 100 scale), Corn (corn (Zea mays)) | Ryegrass, Italian plant response rating ([4]; 31 g ai/ha Postemergence) | Plant response rating (0 to 100 scale), Ryegrass, Italian ([4]; 125 g ai/ha Postemergence) | Plant response rating (0 to 100 scale), Blackgrass ([5]; 31 g ai/ha Preemergence) | Plant response rating (0 to 100 scale), Blackgrass ([5]; 125 g ai/ha Preemergence) | Soybean plant response rating (soybean (Glycine max) [6]; 31 g ai/ha Postemergence) | Plant response rating (0 to 100 scale), Soybean (soybean (Glycine max) [6]; 125 g ai/ha Postemergence) | Plant response rating (0 to 100 scale), Foxtail, Giant ([7]; 31 g ai/ha Preemergence) | Plant response rating (0 to 100 scale), Foxtail, Giant ([7]; 125 g ai/ha Preemergence) | Ryegrass, Italian plant response rating ([4]; 125 g ai/ha Postemergence) | Soybean plant response rating (soybean (Glycine max) [6]; 125 g ai/ha Postemergence)
Cc1cc(C)c(N2CCC(OCC3CC3)C2=O)cc1NS(=O)(=O)C(F)(F)F (stereo not shown) [Compound 22] | 50 | 100 | 80 | 90 | 90 | 100 | 50 | 90 | 70 | 80 | 50 | 90 | 60 | 70 | 100 | 100 | – | –
Cc1c(N2CCC(OC3CC3)C2=O)cc(N(COC(=O)C(C)(C)C)S(=O)(=O)C(F)(F)F)c(C)c1F (stereo not shown) [Compound 23] | 30 | 90 | 30 | 40 | 10 | 30 | 30 | 90 | 50 | 100 | 0 | 10 | 60 | 60 | 20 | 90 | – | –
Cc1c(NS(=O)(=O)C(F)(F)F)cc(N2CCC(OC3CCC3)C2=O)c(C)c1F (stereo not shown) [Compound 25] | 90 | 100 | 80 | 90 | 60 | 100 | 30 | 60 | 20 | – | 80 | 90 | 100 | – | 100 | 100 | 70 | 100
Cc1c(NS(=O)(=O)C(F)(F)F)cc(N2CCC(OC3CC3)C2=O)c(C)c1F (stereo not shown) [Compound 26] | 90 | 100 | 70 | 90 | 60 | 100 | 50 | 90 | 60 | – | 70 | 90 | 70 | – | 90 | 100 | 100 | 100
Cc1c(N2CCC(OC3CCC3)C2=O)cc(N(COC(=O)C(C)(C)C)S(=O)(=O)C(F)(F)F)c(C)c1F (stereo not shown) [Compound 28] | 40 | 100 | 20 | 80 | 20 | 30 | 10 | 30 | 40 | – | 50 | 60 | 50 | – | 70 | 100 | 40 | 60
Cc1cc(Cl)c(N(COC(=O)C(C)(C)C)S(=O)(=O)C(F)(F)F)cc1N1CCC(OC2CC2)C1=O (stereo not shown) [Compound 33] | 30 | 80 | 0 | 60 | 10 | 40 | 80 | 90 | 20 | – | 20 | 80 | 80 | – | 70 | 100 | 90 | 100
Cc1cc(C)c(N2CCC(OC3COC3)C2=O)cc1NS(=O)(=O)C(F)(F)F (stereo not shown) [Compound 34] | 50 | 100 | 40 | 90 | 30 | 80 | 60 | 90 | 40 | – | 30 | 50 | 60 | – | 90 | 90 | 90 | 70
